The subject of data set [1] is A. baumannii ATCC 17978. The experiment in a line: 50% growth inhibitory concentration (IC50) determination, antimicrobial susceptibility testing. Particulars: Acinetobacter baumannii; 50% growth inhibition, A. baumannii strain ATCC17978, Iso-Sensitest medium; read-out: IC50 ATCC17978. It is filed as cell-based. How it is done:
The in vitro antimicrobial activity of the compounds was alternatively determined according to the following procedure:
The assay used a 10-points Iso-Sensitest broth medium to measure quantitatively the in vitro activity of the compounds against A. baumannii ATCC 17978.
Stock compounds in DMSO were serially twofold diluted (e.g. range from 50 to 0.097 μM or from 10 to 0.020 μM final concentration) in 384 wells microtiter plates and inoculated with 49 μl the bacterial suspension in Iso-Sensitest medium to have a final cell concentration of ˜5×10^(5)CFU/ml in a final volume/well of 50 μl/well. Microtiter plates were incubated at 35±2° C.
Bacterial cell growth was determined with the measurement of optical density at X=600 nm each 20 minutes over a time course of 16h.
Growth inhibition was calculated during the logarithmic growth of the bacterial cells with determination of the concentration inhibiting 50% (IC50) and 90% (IC90) of the growth.
Table 1 provides the 50% growth inhibitory concentrations (IC50) in micromoles per liter of the compounds of present invention obtained against the A. baumannii strain ATCC17978.

Data set [2] is described as follows: Plasma precipitation screening assay. Also noted: species or system rat. The note with it: Wistar (Hanbrl:Wist SPF), rat, 10 min. How it is done: An aliquot (10 μL) of compound solubilized in physiological buffer or the formulation used for its parenteral administration in vivo, and of various dilutions thereof in phosphate-buffered saline (PBS), is mixed 1:1 with rat plasma. After 10 minutes incubation at room temperature the UV-absorption of the mixtures is measured and compared to absorption of blank plasma or plasma with vehicle solution. A significant (often concentration dependent) increase of absorption is indicative of precipitation.
Whole blood is obtained from WISTAR rats (Hanbrl:Wist SPF) under terminal anaesthesia after intraperitoneal injection of a pentobarbital solution (from animals euthanized for collection of tissue for other experimental purposes). Blood is collected in 1.2 mL of Heparin S-Monovette tubes (Sarstedt) for the preparation of heparin plasma.
The tubes are then centrifuged for 5 min at 5200 g at room temperature to isolate the plasma supernatant. The plasma is used in the assay within 48 h of collection (storage at 4° C.).
Test compounds are received as powder or formulated. When obtained as powder, they are solubilized in 0.9% aq. sodium chloride solution in order to get the highest indicated concentration to be tested. The solubility is visually checked and the solutions are filtered using 0.45 PVDF hydrophilic filters (Durapore®, Darmstadt, Germany), to remove possible solid impurities. pH of this initial solution might be measured in the filtered stock solutions, before proceeding to prepare a compound dilution series in PBS (1:1-dilution steps).
The assay is conducted in 384-well plates. 10 μL of rat plasma is added to 10 μL of the various compound solutions. The assay is performed in duplicate. 10 μL of vehicle (0.9% aq. sodium chloride solution, PBS) added to the plasma is used as a negative control. The absorption is measured at 362 nm.
Raw data obtained are absorbance data. The difference between absorbance of the sample and mean absorbance of vehicle is calculated. The minimal effect concentration (MEC) is defined as the lowest concentration giving an absorbance difference, OD362≥0.05.

Each structure is given as a SMILES string.

On to `COc1cc(-c2ccc(Cl)c3c2CNC(=O)[C@H](Cc2c[nH]c4ccccc24)N(C)C(=O)[C@H](CCCCN)NC(=O)[C@H](CCCN)NCc2nccnc2S3)ccc1C(=O)O` (racemic) [Example 8.03, 2-methoxy-4-[rac-(11S,14S,17S)-14-(4-aminobutyl)-11-(3-aminopropyl)-25-chloro-17-(1H-indo1-3-ylmethyl)-16-methyl-12,15,18-trioxo-2-thia-4,7,10,13,16,19-hexazatricyclo [19.4.0.03,8]pentacosa-1(25),3(8),4,6,21,23-hexaen-22-yl]benzoic acid], for which, in data set [1], the half-inhibitory concentration (IC50) (commonly the concentration needed to halve the response being measured) was determined as 78 nM. Further, the “Plasma precipitation MEC” value in data set [2] was 760 µmol/L.
In the same order, the values of `CN1C(=O)[C@H](CCCCN)NC(=O)[C@H](CCCN)NCc2cccnc2Sc2c(Cl)ccc(-c3ccc(C(=O)O)c(S(C)(=O)=O)c3)c2CNC(=O)[C@@H]1Cc1c[nH]c2ccccc12` [Example 2.00, 4-[(11S,14S,17S)-14-(4-Aminobutyl)-11-(3-aminopropyl)-25-chloro-17-(1H-indol-3-ylmethyl)-16-methyl-12,15,18-trioxo-2-thia-4,10,13,16,19-pentazatricyclo[19.4.0.03,8]pentacosa-1(25), 3(8), 4,6,21,23-hexaen-22-yl]-2-methylsulfonyl-benzoic Acid] are 73 nM and 950 µmol/L.
The matching figures for `CN1C(=O)[C@H](CCCCN)NC(=O)[C@H](CCCN)NCc2cccnc2Sc2c(Cl)ccc(-c3ccn4nc(C(=O)O)cc4c3)c2CNC(=O)[C@@H]1Cc1c[nH]c2ccccc12` [Example 2.01, 5-[(11S,14S,17S)-14-(4-aminobutyl)-11-(3-aminopropyl)-25-chloro-17-(1H-indo1-3-ylmethyl)-16-methyl-12,15,18-trioxo-2-thia-4,10,13,16,19-pentazatricyclo[19.4.0.03,8]pentacosa-1(25),3(8),4,6,21,23-hexaen-22-yl]pyrazolo[1,5-a]pyridine-2-carboxylic acid]: 20 nM and 820 µmol/L.
With `Cc1[nH]c2ccccc2c1C[C@H]1C(=O)NCc2c(cccc2-c2ccc(C(=O)O)cc2)Sc2ncccc2CN[C@@H](CCCN)C(=O)N[C@@H](CCCCN)C(=O)N1C` [Example 6.00, 4-[(11S,14S,17S)-14-(4-Aminobutyl)-11-(3-aminopropyl)-16-methyl-17-[(2-methyl-1H-indol-3-yl)methyl]-12,15,18-trioxo-2-thia-4,10,13,16,19-pentazatricyclo[19.4.0.03,8]pentacosa-1(25), 3,5,7,21,23-hexaen-22-yl]benzoic Acid], the IC50 in data set [1] is 23 nM. For the same compound, the “Plasma precipitation MEC” value in data set [2] worked out at 1090 µmol/L.
`Cc1[nH]c2ccccc2c1C[C@H]1C(=O)NCc2c(-c3ccn(CC(=O)O)c(=O)c3)ccc(Cl)c2Sc2ncccc2CN[C@@H](CCCN)C(=O)N[C@@H](CCCCN)C(=O)N1C` [Example 7.01, 2-[4-[(1 S,14S,17S)-14-(4-Aminobutyl)-11-(3-aminopropyl)-25-chloro-16-methyl-17-[(2-methyl-1H-indol-3-yl)methyl]-12,15,18-trioxo-2-thia-4,10,13,16,19-pentazatricyclo[19.4.0.03,8]pentacosa-1(25), 3(8), 4,6,21,23-hexaen-22-yl]-2-oxo-1-pyridyl]acetic Acid]: the IC50 in data set [1] came out at 46 nM. Further, the “Plasma precipitation MEC” value in data set [2] was determined as 1650 µmol/L.
As for `CN1C(=O)[C@H](CCCCN)NC(=O)[C@H](CCCN)NCc2nccnc2Sc2c(Cl)ccc(-c3ccc(C(=O)O)c(F)c3)c2CNC(=O)[C@@H]1Cc1c[nH]c2ccccc12` [Example 8.02, 4-[(11S,14S,17S)-14-(4-aminobutyl)-11-(3-aminopropyl)-25-chloro-17-(1H-indo1-3-ylmethyl)-16-methyl-12,15,18-trioxo-2-thia-4,7,10,13,16,19-hexazatricyclo[19.4.0.03,8]pentacosa-1(21),3,5,7,22,24-hexaen-22-yl]-2-fluoro-benzoic acid], the IC50 in data set [1] was 19 nM. In data set [2], the “Plasma precipitation MEC” value amounted to 380 µmol/L.
Regarding `CN1C(=O)[C@H](CCCCN)NC(=O)[C@H](CCCN)NCc2cccnc2Sc2c(F)ccc(-c3ccc(C(=O)O)cc3)c2CNC(=O)[C@@H]1Cc1c[nH]c2ccccc12` [Example 9.00, 4-[(1 S,14S,17S)-14-(4-aminobutyl)-1-(3-aminopropyl)-25-fluoro-17-(1H-indol-3-ylmethyl)-16-methyl-12,15,18-trioxo-2-thia-4,10,13,16,19-pentazatricyclo[19.4.0.03,8]pentacosa-1(25), 3(8), 4,6,21,23-hexaen-22-yl]benzoic Acid], the IC50 in data set [1] was 20 nM. Further, the “Plasma precipitation MEC” value in data set [2] was determined as 870 µmol/L.
As to `CN1C(=O)[C@H](CCCCN)NC(=O)[C@H](CCCN)NCc2cccnc2Sc2c(F)ccc(-c3ccn(CC(=O)O)c(=O)c3)c2CNC(=O)[C@@H]1Cc1c[nH]c2ccccc12` [Example 9.01, 2-[4-[(11S,14S,17S)-14-(4-Aminobutyl)-11-(3-aminopropyl)-25-fluoro-17-(1H-indo1-3-ylmethyl)-16-methyl-12,15,18-trioxo-2-thia-4,10,13,16,19-pentazatricyclo[19.4.0.03,8]pentacosa-1(25),3(8),4,6,21,23-hexaen-22-yl]-2-oxo-1-pyridyl]acetic acid], the IC50 in data set [1] worked out at 81 nM. The “Plasma precipitation MEC” value in data set [2] is >1690 µmol/L.
On to `Cc1ccc(-c2ccc(C(=O)O)cc2)c2c1Sc1ncccc1CN[C@@H](CCCN)C(=O)N[C@@H](CCCCN)C(=O)N(C)[C@@H](Cc1c[nH]c3ccccc13)C(=O)NC2` [Example 10.00, 4-[(11S,14S,17S)-14-(4-Aminobutyl)-1-(3-aminopropyl)-17-(1H-indol-3-ylmethyl)-16,25-dimethyl-12,15,18-trioxo-2-thia-4,10,13,16,19-pentazatricyclo[19.4.0.03,8]pentacosa-1(25), 3(8), 4,6,21,23-hexaen-22-yl]benzoic Acid], for which the IC50 in data set [1] stood at 24 nM. In data set [2], the “Plasma precipitation MEC” value is 870 µmol/L.
In the case of `Cc1ccc(-c2ccn(CC(=O)O)c(=O)c2)c2c1Sc1ncccc1CN[C@@H](CCCN)C(=O)N[C@@H](CCCCN)C(=O)N(C)[C@@H](Cc1c[nH]c3ccccc13)C(=O)NC2` [Example 10.01, 2-[4-[(1S,4S,17S)-14-(4-Aminobutyl)-11-(3-aminopropyl)-17-(1H-indol-3-ylmethyl)-16,25-dimethyl-12,15,18-trioxo-2-thia-4,10,13,16,19-pentazatricyclo[19.4.0.03,8]pentacosa-1(25), 3(8), 4,6,21,23-hexaen-22-yl]-2-oxo-1-pyridyl]acetic Acid], in data set [1], the IC50 worked out at 78 nM. For the same compound, in data set [2], the “Plasma precipitation MEC” value is >1700 µmol/L.
The matching figures for `COc1ccc(-c2ccc(C(=O)O)cc2)c2c1Sc1ncccc1CN[C@@H](CCCN)C(=O)N[C@@H](CCCCN)C(=O)N(C)[C@@H](Cc1c[nH]c3ccccc13)C(=O)NC2` [Example 11.00, 4-[(11S,14S,17S)-14-(4-Aminobutyl)-11-(3-aminopropyl)-17-(1H-indol-3-ylmethyl)-25-methoxy-16-methyl-12,15,18-trioxo-2-thia-4,10,13,16,19-pentazatricyclo[19.4.0.03,8]pentacosa-1(25), 3(8), 4,6,21,23-hexaen-22-yl]benzoic Acid]: 71 nM and 1720 µmol/L.
The matching figures for `CN1C(=O)[C@H](CCCN)NC(=O)[C@H](CCCN)NCc2cccnc2Sc2c(F)ccc(-c3ccc(C(=O)O)nc3)c2CNC(=O)[C@@H]1Cc1c[nH]c2ccccc12` [Example 14.01, 5-[(11S,14S,17S)-11,14-bis(3-Aminopropyl)-25-fluoro-17-(1H-indol-3-ylmethyl)-16-methyl-12,15,18-trioxo-2-thia-4,10,13,16,19-pentazatricyclo[19.4.0.03,8]pentacosa-1(25), 3(8), 4,6,21,23-hexaen-22-yl]pyridine-2-carboxylic Acid]: 90 nM and 880 µmol/L.

Values taken from patent publication US11819532B2, “Peptide macrocycles against Acinetobacter baumannii” (Hoffmann-La Roche Inc., priority 2018, dated 2023).
